# Reference: patent US6562830B1, “Method of treating a patient having precancerous lesions with phenyl quinazolinone derivatives” (Cell Pathways, Inc., priority 1999, dated 2003)
row,melting point,SMILES
1,204 to 205 °C,"CCCOc1ccccc1-c1nc2cc(NC)ccc2c(=O)[nH]1 [Example 27, 7-Methylamino-2-(2-Propoxyphenyl)-4(3H)-quinazolinone]"
2,185 °C,"CCCOc1ccccc1-c1nc2cc(N)ccc2c(=O)[nH]1 [Example 26, 7-Amino-2-(2-Propoxyphenyl)-4(3H)-quinazolinone]"
